{"source": "patent US7700619B2", "about": "“2-methoxymethyl-3-(3,4-dichlorophenyl)-8-azabicyclo[3.2.1]octane tartrate salts” (Neurosearch A/S, priority 2003, dated 2010)", "assay": "Physical stability of the polymorphic form on repeated preparation", "format": "physicochemical", "conditions": "successive preparations of Form IV turned out as mixtures of Form IV and Form III", "experimental": "The form was prepared by suspending a freshly prepared Form II in water free ethanol. Separation of the suspended matter was conducted after 24 hours and subsequent drying under vacuum.\nForm IV can also be obtained from suspension of Form III by the same procedure as described using Form II.\nSuccessive preparations of Form IV turned out as mixtures of Form IV and Form III, indicating difficulties in producing Form IV", "data": [{"compound": "COC[C@@H]1[C@@H](c2ccc(Cl)c(Cl)c2)C[C@@H]2CC[C@H]1N2.O=C(O)C(O)C(O)C(=O)O", "note": "[Form IV, (1R,2R,3S,5S)-2-methoxymethyl-3-(3,4-dichlorophenyl)-8-azabicyclo[3.2.1]octane L-tartrate anhydrate (Form IV)]", "values": [{"measurement": "physical stability of the crystal form", "value": "physically metastable"}]}]}
